Results on 29 compounds are retold here after patent publication US8692017B2, “Carbon linked modulators of gamma-secretase” (Janssen Pharmaceutica, N.V., priority 2007, dated 2014).

For one assay, the target named is T1, γ-secretase (Homo sapiens, UniProt P49768).
T1 construct: endogenous in cells; host or cells: SKNBE2 cells carrying APP 695 wild type
In words: Screening for γ-secretase-modulating activity (Aβ42 lowering) in SKNBE2 cells carrying the APP 695-wild type. As to conditions: @ 1 uM; SKNBE2 cells carrying APP 695-wild type; read-out: Aβ % inhibition @ 1 uM. It counts as cell-based. The protocol:
Screening was carried out using SKNBE2 cells carrying the APP 695-wild type, grown in DMEM/NUT-mix F12 (HAM) provided by Gibco (cat no. 31330-38) containing 5% Serum/Fe supplemented with 1% non-essential amino acids.
Cells were grown to near confluency.
The screening was performed using the assay as described in Citron et al (1997) Nature Medicine 3: 67.
Turning to `CC(C)CC(C(=O)O)c1cc(-c2ccc(C(F)(F)F)cc2)cc(C(O)c2cc(F)cc(F)c2)c1` (centres unmarked) [Compound 9, 2-{5-[(3,5-Difluoro-phenyl)-hydroxy-methyl]-4′-trifluoromethyl-biphenyl-3-yl}-4-methyl-pentanoic acid], the inhibition at 1 µM came out at 14%.

Consider `CC(C)CC(C(=O)O)c1cc(C(=O)c2ccc(C#N)cc2)cc(-c2ccc(C(F)(F)F)cc2)c1` (centres unmarked) [Compound 8, 2-[5-(4-Cyano-benzoyl)-4′-trifluoromethyl-biphenyl-3-yl]-4-methyl-pentanoic acid], for which the inhibition at 1 µM is 25%.

On to `CC(C)CC(C(=O)O)c1cc(/C=C\c2ccc(Cl)cc2)cc(-c2ccc(C(F)(F)F)cc2)c1` (centres unmarked) [Compound 21, 2-{5-[2-(4-Chloro-phenyl)-vinyl]-4′-trifluoromethyl-biphenyl-3-yl}-4-methyl-pentanoic acid], for which the inhibition at 1 µM was 34%.

As to `CC(C)CC(C(=O)O)c1cc(C(=O)c2cc(F)cc(F)c2)cc(-c2ccc(C(F)(F)F)cc2)c1` (centres unmarked) [Compound 7, 2-[5-(3,5-Difluoro-benzoyl)-4′-trifluoromethyl-biphenyl-3-yl]-4-methyl-pentanoic acid], the inhibition at 1 µM amounted to 50%.

For `CC(C)CC(C(=O)O)c1cc(C#Cc2cc(C(F)(F)F)cc(C(F)(F)F)c2)cc(-c2ccc(C(F)(F)F)cc2)c1` (centres unmarked) [Compound 13, 2-[5-(3,5-Bis-trifluoromethyl-phenylethynyl)-4′-trifluoromethyl-biphenyl-3-yl]-4-methyl-pentanoic acid], the inhibition at 1 µM amounted to 28%.

As for `CC(C)CC(C(=O)O)c1cc(C#Cc2ccc(C(F)(F)F)cc2)cc(-c2ccc(C(F)(F)F)cc2)c1` (centres unmarked) [Compound 11, 4-Methyl-2-[4′-trifluoromethyl-5-(4-trifluoromethyl-phenylethynyl)-biphenyl-3-yl]-pentanoic acid], the inhibition at 1 µM turned out to be 10%.

Take `CC(C)CC(C(=O)O)c1cc(C#Cc2cc(F)cc(F)c2)cc(-c2ccc(C(F)(F)F)cc2)c1` (centres unmarked) [Compound 10, 2-[5-(3,5-Difluoro-phenylethynyl)-4′-trifluoromethyl-biphenyl-3-yl]-4-methyl-pentanoic acid]: the inhibition at 1 µM was 53%.

On to `CC(C)CC(C(=O)O)c1cc(/C=C/c2cc(C(F)(F)F)cc(C(F)(F)F)c2)cc(-c2ccc(C(F)(F)F)cc2)c1` (centres unmarked) [Compound 23, 2-{5-[2-(3,5-Bis-trifluoromethyl-phenyl)-vinyl]-4′-trifluoromethyl-biphenyl-3-yl}-4-methyl-pentanoic acid], for which the inhibition at 1 µM turned out to be 72%.

In the case of `CC(C)CC(C(=O)O)c1cc(/C=C\c2ccc(C(F)(F)F)cc2)cc(-c2ccc(C(F)(F)F)cc2)c1` (centres unmarked) [Compound 22, 4-Methyl-2-{4′-trifluoromethyl-5-[2-(4-trifluoromethyl-phenyl)-vinyl]-biphenyl-3-yl}-pentanoic acid], the inhibition at 1 µM worked out at 46%.

As to `CC(C)CC(C(=O)O)c1cc(C#Cc2ccc(Cl)cc2)cc(-c2ccc(C(F)(F)F)cc2)c1` (centres unmarked) [Compound 12, 2-[5-(4-Chloro-phenylethynyl)-4′-trifluoromethyl-biphenyl-3-yl]-4-methyl-pentanoic acid], the inhibition at 1 µM came out at 18%.

Still in this assay, the particulars now being: SKNBE2 cells carrying APP 695-wild type; read-out: Aβ 42 lowering EC50.
`CC(C)CC(C(=O)O)c1cc(/C=C/c2ccc(F)cc2)cc(-c2ccc(C(F)(F)F)cc2)c1` (centres unmarked) [Compound 18, 2-{5-[2-(4-Fluoro-phenyl)-vinyl]-4′-trifluoromethyl-biphenyl-3-yl}-4-methyl-pentanoic acid]: the EC50 was found to be 390 nM.

As for `Cc1ccc(CCc2cc(-c3ccc(C(F)(F)F)cc3)cc(C(CC(C)C)C(=O)O)c2)cc1` (centres unmarked) [Compound 28, 4-Methyl-2-[5-(2-p-tolyl-ethyl)-4′-trifluoromethyl-biphenyl-3-yl]-pentanoic acid], the EC50 was 350 nM.

Turning to `CC(C)CC(C(=O)O)c1cc(/C=C/c2ccc(-c3ccccc3)cc2)cc(-c2ccc(C(F)(F)F)cc2)c1` (centres unmarked) [Compound 14, 2-[5-(2-Biphenyl-4-yl-vinyl)-4′-trifluoromethyl-biphenyl-3-yl]-4-methyl-pentanoic acid], the EC50 stood at 150 nM.

For the compound `CC(C)CC(C(=O)O)c1cc(CCc2ccc(Cl)cc2)cc(-c2ccc(C(F)(F)F)cc2)c1` (centres unmarked) [Compound 26, 2-{5-[2-(4-Chloro-phenyl)-ethyl]-4′-trifluoromethyl-biphenyl-3-yl}-4-methyl-pentanoic acid], the EC50 came out at 740 nM.

On to `CC(C)CC(C(=O)O)c1cc(CCc2ccc(F)cc2)cc(-c2ccc(C(F)(F)F)cc2)c1` (centres unmarked) [Compound 27, 2-{5-[2-(4-Fluoro-phenyl)-ethyl]-4′-trifluoromethyl-biphenyl-3-yl}-4-methyl-pentanoic acid], for which the EC50 stood at 580 nM.

For the compound `CC(C)CC(C(=O)O)c1cc(CCc2ccc(C(F)(F)F)cc2)cc(-c2ccc(C(F)(F)F)cc2)c1` (centres unmarked) [Compound 25, 4-Methyl-2-{4′-trifluoromethyl-5-[2-(4-trifluoromethyl-phenyl)-ethyl]-biphenyl-3-yl}-pentanoic acid], the EC50 is 670 nM.

Take `CC(C)CC(C(=O)O)c1cc(/C=C/c2ccc(C(F)(F)F)cc2)cc(-c2ccc(C(F)(F)F)cc2)c1` (centres unmarked) [Compound 15, 4-Methyl-2-{4′-trifluoromethyl-5-[2-(4-trifluoromethyl-phenyl)-vinyl]-biphenyl-3-yl}-pentanoic acid]: the EC50 came to 400 nM.

For `CC(C)CC(C(=O)O)c1cc(Cc2ccc(F)cc2F)cc(-c2ccc(C(F)(F)F)cc2)c1` (centres unmarked) [Compound 3, 2-[5-(2,4-Difluoro-benzyl)-4′-trifluoromethyl-biphenyl-3-yl]-4-methyl-pentanoic acid], the EC50 amounted to 2170 nM.

For the compound `CC(C)CC(C(=O)O)c1cc(CCc2cc(F)cc(F)c2)cc(-c2ccc(C(F)(F)F)cc2)c1` (centres unmarked) [Compound 29, 2-{5-[2-(3,5-Difluoro-phenyl)-ethyl]-4′-trifluoromethyl-biphenyl-3-yl}-4-methyl-pentanoic acid], the EC50 came out at 410 nM.

Take `CC(C)CC(C(=O)O)c1cc(Cc2cccc(C(F)(F)F)c2)cc(-c2ccc(C(F)(F)F)cc2)c1` (centres unmarked) [Compound 5, 4-Methyl-2-[4′-trifluoromethyl-5-(3-trifluoromethyl-benzyl)-biphenyl-3-yl]-pentanoic acid]: the EC50 amounted to 1130 nM.

On to `CC(C)CC(C(=O)O)c1cc(/C=C/c2ccc(Cl)cc2)cc(-c2ccc(C(F)(F)F)cc2)c1` (centres unmarked) [Compound 17, 2-{5-[2-(4-Chloro-phenyl)-vinyl]-4′-trifluoromethyl-biphenyl-3-yl}-4-methyl-pentanoic acid], for which the EC50 was 360 nM.

On to `CC(C)CC(C(=O)O)c1cc(/C=C/c2cc(F)cc(F)c2)cc(-c2ccc(C(F)(F)F)cc2)c1` (centres unmarked) [Compound 19, 2-{5-[2-(3,5-Difluoro-phenyl)-vinyl]-4′-trifluoromethyl-biphenyl-3-yl}-4-methyl-pentanoic acid], for which the half-maximal effective concentration (EC50) came out at 450 nM.

On to `CC(C)CC(C(=O)O)c1cc(Cc2cc(Cl)cc(Cl)c2)cc(-c2ccc(C(F)(F)F)cc2)c1` (centres unmarked) [Compound 2, 2-[5-(3,5-Dichloro-benzyl)-4′-trifluoromethyl-biphenyl-3-yl]-4-methyl-pentanoic acid], for which the EC50 turned out to be 570 nM.

In the case of `CC(C)CC(C(=O)O)c1cc(Cc2cnccc2Cl)cc(-c2ccc(C(F)(F)F)cc2)c1` (centres unmarked) [Compound 4, 2-[5-(4-Chloro-pyridin-3-ylmethyl)-4′-trifluoromethyl-biphenyl-3-yl]-4-methyl-pentanoic acid], the EC50 is 2750 nM.

With `CC(C)CC(C(=O)O)c1cc(Cc2cc(F)cc(F)c2)cc(-c2ccc(C(F)(F)F)cc2)c1` (centres unmarked) [Compound 6, 2-[5-(3,5-Difluoro-benzyl)-4′-trifluoromethyl-biphenyl-3-yl]-4-methyl-pentanoic acid], the EC50 was determined as 740 nM.

Turning to `CC(C)CC(C(=O)O)c1cc(C(=O)c2cc(Cl)cc(Cl)c2)cc(-c2ccc(C(F)(F)F)cc2)c1` (centres unmarked) [Compound 1, 2-[5-(3,5-Dichloro-benzoyl)-4′-trifluoromethyl-biphenyl-3-yl]-4-methyl-pentanoic acid], the EC50 came out at 710 nM.

Take `Cc1ccc(/C=C/c2cc(-c3ccc(C(F)(F)F)cc3)cc(C(CC(C)C)C(=O)O)c2)cc1` (centres unmarked) [Compound 16, 4-Methyl-2-[5-(2-p-tolyl-vinyl)-4′-trifluoromethyl-biphenyl-3-yl]-pentanoic acid]: the EC50 came to 660 nM.

As for `CC(C)CC(C(=O)O)c1cc(CCc2ccc(-c3ccccc3)cc2)cc(-c2ccc(C(F)(F)F)cc2)c1` (centres unmarked) [Compound 24, 2-[5-(2-Biphenyl-4-yl-ethyl)-4′-trifluoromethyl-biphenyl-3-yl]-4-methyl-pentanoic acid], the EC50 turned out to be 210 nM.

For the compound `COc1ccc(/C=C/c2cc(-c3ccc(C(F)(F)F)cc3)cc(C(CC(C)C)C(=O)O)c2)cc1` (centres unmarked) [Compound 20, 2-{5-[2-(4-Methoxy-phenyl)-vinyl]-4′-trifluoromethyl-biphenyl-3-yl}-4-methyl-pentanoic acid], the EC50 was determined as 610 nM.
